The results in this text go back to ChEMBL document CHEMBL1130833, “Inhibition of electric eel acetylcholinesterase by porphin compounds” (Bioorg Med Chem Lett, 1998).

Broadly, the Ki is a measure of affinity in units of concentration, obtained from inhibition or displacement.

This assay has as its target Acetylcholinesterase (Electrophorus electricus, UniProt O42275). The assay can be described thus: Compound was evaluated for inhibitory constant for the electric eel Acetylcholinesterase (AChE).

Chain of Acetylcholinesterase (O42275 whole entry): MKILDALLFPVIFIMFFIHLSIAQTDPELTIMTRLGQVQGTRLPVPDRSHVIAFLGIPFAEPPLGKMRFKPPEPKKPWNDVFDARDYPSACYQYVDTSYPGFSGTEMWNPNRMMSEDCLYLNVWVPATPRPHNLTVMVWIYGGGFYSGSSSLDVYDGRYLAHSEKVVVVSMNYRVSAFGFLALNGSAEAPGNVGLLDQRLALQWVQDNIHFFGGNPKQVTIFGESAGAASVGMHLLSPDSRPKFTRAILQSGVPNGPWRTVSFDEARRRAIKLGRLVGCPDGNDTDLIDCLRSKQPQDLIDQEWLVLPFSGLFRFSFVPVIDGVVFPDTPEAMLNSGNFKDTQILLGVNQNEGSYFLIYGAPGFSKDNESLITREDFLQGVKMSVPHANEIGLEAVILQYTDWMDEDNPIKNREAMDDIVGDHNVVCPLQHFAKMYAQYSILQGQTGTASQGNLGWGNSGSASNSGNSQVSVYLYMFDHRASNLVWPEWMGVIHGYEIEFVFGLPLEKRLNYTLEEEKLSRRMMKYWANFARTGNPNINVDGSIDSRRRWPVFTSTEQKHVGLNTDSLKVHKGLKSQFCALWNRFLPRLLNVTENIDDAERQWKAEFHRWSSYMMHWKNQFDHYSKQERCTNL

With `C1=Cc2nc1c(-c1ccccc1)c1ccc([nH]1)c(-c1ccccc1)c1nc(c(-c3ccccc3)c3ccc([nH]3)c2-c2ccccc2)C=C1`, the Ki (tested as the Zn salt or complex) turned out to be 5390 nM.

`Fc1cccc(F)c1-c1c2nc(c(-c3c(F)cccc3F)c3ccc([nH]3)c(-c3c(F)cccc3F)c3ccc([nH]3)c(-c3c(F)cccc3F)c3nc1C=C3)C=C2` registered a Ki of 12 nM. The same measure, in the same setting: the result for `Fc1ccc(-c2c3nc(c(-c4ccc(F)cc4F)c4ccc([nH]4)c(-c4ccc(F)cc4F)c4ccc([nH]4)c(-c4ccc(F)cc4F)c4nc2C=C4)C=C3)c(F)c1` reads 5 nM.
